According to patent publication US20170049793A1, “MOLECULAR ACTIVATORS OF THE WNT/BETA-CATENIN PATHWAY” (THE GENERAL HOSPITAL CORPORATION, priority 2009, published 2017):

What was measured:
B16 melanoma cells = assay: MTT proliferation assay in B16 melanoma cells; type: cell-based, murine; settings: 1 μM BIO vs control cells
[1] = Suitability for murine therapeutic trials (toxicity, serum levels); type: in vivo, mice; settings: precluding murine therapeutic trials
[2] = test system: Axin2 expression (Wnt/β-catenin pathway) in B16 cells; assay: Quantitative PCR of the Wnt/β-catenin target gene Axin2 in B16 cells; type: cell-based, murine; settings: 1 μM BIO vs control cells
Experimental: Cells were cultured for approximately 72 hours until they reached 80-90% confluency. RNA was purified using the RNeasy kit using the manufacturer's protocol (Qiagen; Maryland, Md.). cDNA was synthesized using Superscript Reverse Transcriptase (Invitrogen; Grand Island, N.Y.). Light Cycler FastStart DNA Master SYBR Green1 (Roche; Mannheim, Germany) was used for real-time PCR as previously described (Major et al., Science 316:1043 (2007), which is hereby incorporated by reference in its entirety). Quantitative PCR results presented in the manuscript are representative of experiments performed on a minimum of three biologic replicates.

[3] = test system: nuclear β-catenin (Wnt/β-catenin pathway) in B16 cells; assay: Immunofluorescent staining of β-catenin in B16 cells; type: cell-based, murine; settings: 1 μM BIO vs DMSO control
Experimental: A polyclonal rabbit anti-β-catenin antibody was used for detection of 1β-catenin (1:1000 dilution for immunoblot, 1:200 dilution for immunohistochemistry). Cells were grown on 18 mm glass coverslips, for 48-72 hours, fixed using 4% paraformaldehyde, permeabilized using 0.25% Triton X-100, and then blocked with 10% goat serum. Goat anti-rabbit Alexa Fluor-568 antibody (Molecular Probes; Eugene, Oreg.) was diluted 1:1000. Cells were counterstained for nucleic acid with DAPI (Molecular Probes; Eugene, Oreg.). Paraffin-embedded nevus sections were stained using an antibody dilution of 1:200. Cellular lysates were obtained by lysing cells on plate with a 0.1% NP-40 based buffer and analyzed by NuPage 4-12% gradient gels (Invitrogen; Grand Island, N.Y.). The WNTSA antibody was obtained from Cell Signaling Technologies (Danvers, Mass.).

SMILES: O=C1Nc2cc(Br)ccc2/C1=C1/Nc2ccccc2/C1=N\O [BIO, 6-bromoindirubin-3′-oxime]
- proliferation (MTT assay) (B16 melanoma cells): decreased proliferation
- toxicity [1]: obstacles relating to both toxicity
- Axin2 levels (quantitative PCR) [2]: increased Axing levels
- nuclear β-catenin (immunofluorescent staining) [3]: increased nuclear β-catenin
